US9877981B2, “NAD biosynthesis and precursors for the treatment and prevention of cancer and proliferation” (President and Fellows of Harvard College, priority 2012, dated 2018)
“Also recorded” adds a separate entry of the source.

Columns and labels:
HIF-1α = test: Immunoblot for HIF-1α in gastrocnemius of treated mice; format: in vivo
Experimental: C57BL/6J mice of 3, 6, 22, 24, or 30 months of age were obtained from the National Institutes of Aging mouse aging colony. Mice were acclimated for at least one-week prior to sacrifice. 3, and 24-month-old mice were given interperitoneal (IP) injections of 500 mg NMN/kg body weight per day or the equivalent volume of PBS for 7 consecutive days at 5:00 pm and 7:00 am on day 8 and sacrificed 4 hr after last injection. All animal studies followed the guidelines of and were approved by the Harvard Institutional Animal Care and Use Committee
C57BL/6J mice of 6, 22, or 30 months of age were obtained from the National Institutes of Aging mouse aging colony. Additionally 22 months old caloric restricted mice were also obtained from the National Institutes of Aging mouse aging colony. EGLN1 KO, SIRT1 KO and SIRT1 OE mice were generated as previously described (Minamishima et al., 2008; Price et al., 2012). Mice were acclimated for at least one-week prior to sacrifice. […]
(§1) Protein extracts from tissue or C2C12 cells were obtained by lysis in ice-cold lysis buffer (150 mM NaCl, 10 mM Tris HCl (pH 7.4), 1 mM EDTA, 1 mM EGTA, 1% Triton X-100, 0.5% NP-40) supplemented with a cocktail of protease and phosphatase inhibitors (Roche). Protein content was determined by the Bradford protein assay (Biorad), and 50 μg proteins were run on SDS-PAGE under reducing conditions. […] The immunostaining was detected using horseradish peroxidase-conjugated anti-rabbit or anti-mouse immunoglobulin for 1 h at room temperature.
as §1, with “tissue” for “tissue or C2C12 cells”

[1] = system: mitochondrial-encoded genes (ND1, Cytb, COX1 and ATP6); test: qPCR of mitochondrial-encoded genes in gastrocnemius of treated mice; format: in vivo
Text: C57BL/6J mice of 6, 22, or 30 months of age were obtained from the National Institutes of Aging mouse aging colony. Additionally 22 months old caloric restricted mice were also obtained from the National Institutes of Aging mouse aging colony. EGLN1 KO, SIRT1 KO and SIRT1 OE mice were generated as previously described (Minamishima et al., 2008; Price et al., 2012). Mice were acclimated for at least one-week prior to sacrifice. 3, 6, 22 and 24-month-old mice were given interperitoneal (IP) injections of 500 mg NMN/kg body weight per day or the equivalent volume of PBS for 7 consecutive days at 5:00 pm and 7:00 am on day 8 and sacrificed 4 hr after last injection.
Whole body SIRT1 overexpressor (SIRT1-tg) mice of 6 months of age were given interperitoneal (IP) injections of 300 mg DMOG/kg body weight per day or the equivalent volume of PBS for 5 consecutive days.
Whole body adult-inducible Egln1 knockout mice (Minamishima et al, 2007) were treated with IP injection of tamoxifen for 3 days after which they were allowed to rest. The mice were given interperitoneal (IP) injections of 500 mg NMN/kg body weight per day or the equivalent volume of PBS for 7 consecutive days at 5:00 pm and 7:00 am on day 8 and sacrificed 4 hr after last injection. All animal studies followed the guidelines of and were approved by the Harvard Institutional Animal Care and Use Committee.
(§2) RNA from skeletal muscle tissue and C2C12 cells were extracted with RNeasy mini kit (Qiagen) according to the instructions and quantified using the NanoDrop 1000 spectrophotometer (Thermo Scientific). cDNA was synthesized with the iSCRIP cDNA synthesis kit (BioRad) using 600 ng of RNA. Quantitative RT-PCR reactions were performed using 1 μM of primers and LightCycler® 480 SYBR Green Master (Roche) on an LightCycler® 480 detection system (Roche). Calculations were performed by a comparative method (2-ΔCT) using 18S as an internal control. For mtDNA analysis, total DNA was extracted with DNeasy blood and tissue kit (Qiagen). mtDNA was amplified using primers specific for the mitochondrial cytochrome c oxidase subunit 2 (COX2) gene and normalized to genomic DNA by amplification of the ribosomal protein s18 (rps18) nuclear gene. Primers were designed using the IDT software (IDT) and the primer sequences can be found in Table 1.
RNA from skeletal muscle and aorta were extracted with RNeasy mini kit (Qiagen) according to the instructions and quantified using the NanoDrop 1000 spectrophotometer (Thermo Scientific). cDNA was synthesized with the iSCRIP cDNA synthesis kit (BioRad) using 600 ng of RNA. Quantitative RT-PCR reactions were performed using 1 μM of primers and LightCycler® 480 SYBR Green Master (Roche) on an LightCycler® 480 detection system (Roche). […]

PGC-1α/β KO myotubes = test: qPCR of ETC genes in PGC-1α/β KO myotubes; format: cell-based, mouse; set-up: expression of mitochondrially-encoded ETC genes (ND1, CYTB, COX1, ATP6): dose or concentration left out as unconfirmed
Experimental: Primary myoblasts cells were isolated from WT, SIRT1 KO (Price et al., 2012) and PGC-1α/β KO (Zechner et al., 2010) mice as previously described (Price et al., 2012). WT and PGC-1α/β KO primary myoblasts were plated and allowed to differentiate into myotubes by replacing the media with low glucose DMEM supplemented with 2% horse serum (Sigma-Aldrich) for 4 days. After the differentiation the cells were infected with empty vector or flag-SIRT1 adenovirus as described before (Gerhart-Hines et al., 2007). Media was replaced with fresh DMEM supplemented with 2% horse serum (Sigma-Aldrich) for an additional 48 hr and, after that the cells were harvested for the different assays as described. To investigate the role of HIF-1α in genome asynchrony, PGC-1α/β KO primary myotubes were treated for 12 hours with 1 mM DMOG (Sigma) or 10 μM DFO (Sigma), 24 h after infection with empty vector of flag-SIRT1 adenovirus or after 12 h treatment with […] NMN (Sigma).
as §2

Row | SMILES | HIF-1α protein in muscle (HIF-1α; 3- and 24-month-old mice, NMN 500 mg/kg IP one week) | HIF-1α protein accumulation (HIF-1α; 6- and 22-month-old mice, NMN one week) | expression of mitochondrial-encoded genes ([1]; 22-month-old mice, NMN one week, gastrocnemius) | mitochondrial-encoded genes in skeletal muscle ([1]; Egln1 KO mice treated with NMN 500 mg/kg IP 7 days, compared to WT controls) | ability of NMN to induce mitochondrially-encoded genes ([1]; SIRT1 KO mice vs WT, NMN or PBS, gastrocnemius) | expression of mitochondrially-encoded ETC genes (ND1, CYTB, COX1, ATP6) (PGC-1α/β KO myotubes; PGC-1α/β KO myotubes incubated with NMN (12 h)) | HIF-1α protein (HIF-1α; SIRT1-tg mice, DMOG 300 mg/kg IP per day, 5 days) | increase in expression of mitochondrial-encoded genes observed in SIRT1-tg mice ([1]; SIRT1-tg mice, DMOG 300 mg/kg IP per day, 5 days, gastrocnemius) | effect on NMN-induced expression of mitochondrially-encoded ETC genes (PGC-1α/β KO myotubes; PGC-1α/β KO myotubes, NMN plus 1 mM DMOG or 10 μM DFO, 12 hours) | effect on NAD (pyruvate) mediated increases in mitochondrial-encoded genes (PGC-1α/β KO myotubes; PGC-1α/β KO myotubes, pyruvate in presence of DMOG) | expression of mitochondrial-encoded genes compared to vehicle control (PGC-1α/β KO myotubes; PGC-1α/β knockout myotubes treated with DMOG) | effect on induction of mitochondrial ETC genes by SIRT1 overexpression (PGC-1α/β KO myotubes; PGC-1α/β knockout myotubes with SIRT1 adenovirus, 1 mM DMOG or 10 μM DFO)
1 | NC(=O)c1ccc[n+]([C@@H]2O[C@H](COP(=O)([O-])O)[C@@H](O)[C@H]2O)c1 [NMN, nicotinamide mononucleotide] | reversed the age-induced increase in HIF-1α in muscle | reversed; also recorded: reduced the level of HIF-1α in muscle | restored | did not restore mitochondrial-encoded genes | lost in animals lacking SIRT1 | induced expression of mitochondrially-encoded ETC genes |  |  |  |  |  | 
2 | COC(=O)CNC(=O)C(=O)OC [DMOG, dimethyloxaloylglycine] |  |  |  |  |  |  | increase HIF-1α | abolished the increase in the expression of mitochondrial-encoded genes | completely abolished | inhibited | induced a decline in the expression of mitochondrial-encoded genes | completely blocked
